# Measured values as given in patent publication EP4706655A1, “PREVENTIVE OR THERAPEUTIC AGENT FOR NEURODEGENERATIVE DISEASE” (Medilabo RFP, Inc., priority 2023, dated 2024).
# Columns and labels:
# FTD/ALS model mice [1] = test: Morris water maze test (Test Example 2); format: in vivo; conditions: 7- to 8-month-old mice; nasal, single agent 0.04 mg/day, 1 month
# From the text: FVB/NJ-Tg(C9orf72)500Lpwr/J mice (FTD/ALS model mice) were purchased from The Jackson Laboratory (Bar Harbor, ME, USA). The mouse strain was generated as a model for the C9orf72-associated FTD/ALS expressing the human C9orf72 gene with about 500 hexanucleotide ([…]) repeats using a bacterial artificial chromosome (BAC) vector. Transgenic (Tg) mice were crossed with wild-type FVB/NJc1 mice, and the transgene was maintained as a heterozygote at our animal facility. […] Louis, MO) and trans-resveratrol (Sigma-Aldrich) were dissolved in 0.5% low-viscosity CMC (Sigma-Aldrich) at 4 mg/mL. […] Age-matched non-Tg […] mates received only CMC. After administration for one month, the cognitive function of the mice was assessed in the Morris water maze test as described above.
# FTD/ALS model mice [2] = test: Immunohistochemical analysis of brain sections (Test Example 2); format: in vivo; conditions: nasal, single agent 0.04 mg/day, 1 month
# From the text: FVB/NJ-Tg(C9orf72)500Lpwr/J mice (FTD/ALS model mice) were purchased from The Jackson Laboratory (Bar Harbor, ME, USA). The mouse strain was generated as a model for the C9orf72-associated FTD/ALS expressing the human C9orf72 gene with about 500 hexanucleotide (GGGGCC) repeats using a bacterial artificial chromosome (BAC) vector. Transgenic (Tg) mice were crossed with wild-type FVB/NJc1 mice, and the transgene was maintained as a heterozygote at our animal facility.
# (§1) Age-matched non-Tg rat mates received only CMC.
# (§2) After the behavioral test, each group was divided into two groups: one for immunohistochemical analysis and the other for future biochemical analysis. Immunohistochemical staining was performed as described above. For staining of double-stranded RNA-dependent protein kinase (PKR), phosphorylated TDP-43, synaptophysin, sections were boiled in 10 mM citrate buffer solution (pH6) for 30 min to expose the antigens. The sections were blocked overnight with 10% calf serum, and then the resultant sections were stained with antibodies for DNA/RNA G-quadruplex (BG4; Absolute antibody, Cleveland, UK), phospho-PKR (Thr446) (MilliporeSigma, Burlington, MA, USA), poly-GA, poly-GP (Cosmo Bio Co., Ltd., Tokyo, Japan), pSer409/410-TDP-43 (Cosmo Bio Co., Ltd.), and synaptophysin (SVP-38; Sigma-Aldrich, St. Luis, MO, USA). Only synaptophysin was stained with a biotin-labeled secondary antibody (Vector Laboratories, Burlingame, CA, USA), a horseradish peroxidase (HRP) -labeled avidin-biotin complex (Vector Laboratories), HRP substrate, diaminobenzidine (DAB), or an FITC-labeled secondary antibody (The Jackson Laboratory). […] Neuropathologies were evaluated by measuring the staining intensity or area or by counting positive puncta or cells in a constant area in each photograph using NIH ImageJ software.
# PKR = test: Immunohistochemical analysis of phospho-PKR (Thr446) (Test Example 2); format: in vivo, mice; conditions: prefrontal cortex; nasal, single agent 0.04 mg/day, 1 month
# Procedure: as §1, §2
# BDNF = test: Expression of BDNF in the mouse brains; format: in vivo; conditions: stated in the discussion only; no method, dose or data given
smiles,measurement,setting,value
"Oc1ccc(/C=C/c2cc(O)cc(O)c2)cc1 [resveratrol, 3,5,4'-trihydroxy-trans-stilbene]",cognitive function of FTD/ALS model mice,FTD/ALS model mice [1],significantly improved
same,"relative strength of the reduction of prefrontal cortex pathologies (G-quadruplex, phosphorylated PKR, poly-GA, poly-GP, phosphorylated TDP-43)",FTD/ALS model mice [2]; comparison among treatment groups,strongest effect
same,synaptic loss (synaptophysin levels) in the DG,FTD/ALS model mice [2]; dentate gyrus,significantly restored synaptic loss
same,synaptic loss (synaptophysin levels) in the CA2-3 region,FTD/ALS model mice [2]; hippocampus,significantly restored synaptic loss
same,levels of G-quadruplex,FTD/ALS model mice [2]; prefrontal cortex,significantly reduced
same,levels of phosphorylated TDP-43,FTD/ALS model mice [2]; prefrontal cortex,significantly reduced
same,levels of poly-GA,FTD/ALS model mice [2]; prefrontal cortex,significantly reduced
same,levels of poly-GP,FTD/ALS model mice [2]; prefrontal cortex,significantly reduced
same,levels of phosphorylated PKR,PKR,significantly reduced
same,expression of BDNF in the mouse brains,BDNF,elicited
